Measured values published in ChEMBL document CHEMBL1201862, “PubChem BioAssay data set” (2004).
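Where inhibition never reached the appropriate level, the endpoint shown equals the highest concentration tested. Otherwise, values were interpolated linearly from a five-concentration, 48-hour dose response in 96-well plates. Abbreviation: GI50, concentration required for 50% inhibition of growth.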 Active and inactive are the calls of the source. Cut-off read from the data, not from the text of the source: active = GI50 up to about 1.1 µM and inactive = higher.

Key:
Experiment in all cases: growth of human tumour cells (NCI), 48 h
ACHN = tested on: ACHN
CCRF-CEM = tested on: CCRF-CEM
HOP-92 = tested on: HOP-92
HT-29 = tested on: HT-29
KM12 = tested on: KM12
M14 = tested on: M14
Malme-3M = tested on: Malme-3M
NCI-H226 = tested on: NCI-H226
NCI-H23 = tested on: NCI-H23
NCI-H460 = tested on: NCI-H460
OVCAR-8 = tested on: OVCAR-8
SF-268 = tested on: SF-268
SN12C = tested on: SN12C
SNB-19 = tested on: SNB-19
UO-31 = tested on: UO-31
HCT-116 = tested on: HCT-116
HCT-15 = tested on: HCT-15
DU-145 = tested on: DU-145
MCF7 = tested on: MCF7

Row | SMILES | GI50 (ACHN) | GI50 (CCRF-CEM) | GI50 (HOP-92) | GI50 (HT-29) | GI50 (KM12) | GI50 (M14) | GI50 (Malme-3M) | GI50 (NCI-H226) | GI50 (NCI-H23) | GI50 (NCI-H460) | GI50 (OVCAR-8) | GI50 (SF-268) | GI50 (SN12C) | GI50 (SNB-19) | GI50 (UO-31) | GI50 (HCT-116) | GI50 (HCT-15) | GI50 (DU-145) | GI50 (MCF7)
1 | O=C(O)c1cc(=O)c2cc(C(=O)c3cccs3)c(Cl)c(Cl)c2o1 | > 100 µM (inactive) | > 100 µM (inactive) | > 100 µM (inactive) | > 100 µM (inactive) | > 100 µM (inactive) | > 100 µM (inactive) | > 100 µM (inactive) | > 100 µM (inactive) | > 100 µM (inactive) | > 100 µM (inactive) | > 100 µM (inactive) | > 100 µM (inactive) | > 100 µM (inactive) | > 100 µM (inactive) | > 100 µM (inactive) | – | – | – | –
2 | CC(=O)C1Cn2c(nc3ccccc32)C[Se]1 (centres undefined) | 3.39 µM (inactive) | 3.49 µM (inactive) | 2.09 µM (inactive) | 7.48 µM (inactive) | 3.4 µM (inactive) | 2.3 µM (inactive) | 2.47 µM (inactive) | 3.72 µM (inactive) | 2.75 µM (inactive) | 4.15 µM (inactive) | 4.09 µM (inactive) | 3.85 µM (inactive) | 4.43 µM (inactive) | 5 µM (inactive) | 3.1 µM (inactive) | 2.2 µM (inactive) | 4.56 µM | – | –
3 | COCCN1C2=CCCCC2=Nc2c(N)nc(N)nc21 | > 100 µM (inactive) | > 100 µM (inactive) | > 100 µM (inactive) | > 100 µM (inactive) | > 100 µM (inactive) | > 100 µM (inactive) | > 100 µM (inactive) | > 100 µM (inactive) | > 100 µM (inactive) | > 100 µM (inactive) | > 100 µM (inactive) | > 100 µM (inactive) | > 100 µM (inactive) | > 100 µM (inactive) | > 100 µM (inactive) | > 100 µM (inactive) | > 100 µM | – | –
4 | COc1ccc(CCc2cc(OC)c(O)c(OC)c2)cc1 | 80.5 µM (inactive) | 77.1 µM (inactive) | 66.8 µM (inactive) | 41 µM (inactive) | 58.2 µM (inactive) | 77.3 µM (inactive) | 74.1 µM (inactive) | 41.8 µM (inactive) | 37.2 µM (inactive) | 82 µM (inactive) | > 100 µM (inactive) | 73.5 µM (inactive) | > 100 µM (inactive) | 98.6 µM (inactive) | 42.6 µM (inactive) | 59 µM (inactive) | – | – | –
5 | c1cc2[se][se]c3c4cccc5[se][se]c(c(c1)c23)c54 | > 100 µM (inactive) | > 100 µM (inactive) | > 100 µM (inactive) | > 100 µM (inactive) | > 100 µM (inactive) | > 100 µM (inactive) | > 100 µM (inactive) | > 100 µM (inactive) | > 100 µM (inactive) | > 100 µM (inactive) | > 100 µM (inactive) | > 100 µM (inactive) | > 100 µM (inactive) | > 100 µM (inactive) | > 100 µM (inactive) | > 100 µM (inactive) | – | – | –
6 | COC(=O)C1Cc2c([nH]c3ccccc23)C(c2ccccc2O)N1Cc1ccccc1 (centres undefined) | 28.4 µM (inactive) | > 46.5 µM (inactive) | 22.6 µM (inactive) | 28.2 µM (inactive) | > 31.6 µM (inactive) | 38.4 µM (inactive) | > 31.6 µM (inactive) | 35.7 µM (inactive) | 44.3 µM (inactive) | 30.8 µM (inactive) | 29.4 µM (inactive) | 26.4 µM (inactive) | 36 µM (inactive) | > 31.6 µM (inactive) | 31 µM (inactive) | 23.3 µM (inactive) | > 46.5 µM | – | –
7 | O=C(Cc1ccccc1)NN1C(=O)/C(=C\c2ccc([N+](=O)[O-])cc2)S/C1=N\c1ccccc1 | > 100 µM (inactive) | 68.9 µM (inactive) | 68.9 µM (inactive) | > 100 µM (inactive) | > 100 µM (inactive) | > 100 µM (inactive) | – | > 100 µM (inactive) | 68.5 µM (inactive) | > 100 µM (inactive) | 77.6 µM (inactive) | > 100 µM (inactive) | > 100 µM (inactive) | > 100 µM (inactive) | > 100 µM (inactive) | > 100 µM (inactive) | > 100 µM | > 100 µM (inactive) | 63.2 µM (inactive)
8 | CC(C)CC(N)C(=O)OCN1C(=O)C2C3C=CC(C2C1=O)C1C2C(=O)N(COC(=O)C(N)CC(C)C)C(=O)C2C31 (centres undefined) | > 100 µM (inactive) | 75.3 µM (inactive) | > 100 µM (inactive) | > 100 µM (inactive) | > 100 µM (inactive) | > 100 µM (inactive) | > 100 µM (inactive) | > 100 µM (inactive) | > 100 µM (inactive) | > 59.7 µM (inactive) | > 100 µM (inactive) | > 100 µM (inactive) | > 100 µM (inactive) | > 100 µM (inactive) | > 100 µM (inactive) | > 43.8 µM (inactive) | > 45 µM | – | –
9 | COc1ccc(OC)c(NC(=O)C(=O)NNC(=O)c2sc(NNC(C)=O)nc2C)c1 | 29.2 µM (inactive) | 16.9 µM (inactive) | 8.69 µM (inactive) | 35.6 µM (inactive) | 39.4 µM (inactive) | 50.9 µM (inactive) | 49.2 µM (inactive) | 32.7 µM (inactive) | 21.8 µM (inactive) | 30.8 µM (inactive) | 34.9 µM (inactive) | 27.3 µM (inactive) | 33 µM (inactive) | 59.4 µM (inactive) | 45.4 µM (inactive) | 28.6 µM (inactive) | 31 µM | – | –
10 | Oc1cn(-c2ccc(Cl)cc2)nc1-c1nnc(Nc2ccccc2)o1 | 25.6 µM (inactive) | – | – | 9.55 µM (inactive) | 17.7 µM (inactive) | 19.6 µM (inactive) | 25.2 µM (inactive) | 8.39 µM (inactive) | 14.1 µM (inactive) | 19.9 µM (inactive) | 20.9 µM (inactive) | 14.6 µM (inactive) | 16.1 µM (inactive) | 20.9 µM (inactive) | 14.3 µM (inactive) | 16.1 µM (inactive) | 10.4 µM | 15.4 µM (inactive) | 16.9 µM (inactive)
11 | COc1cccc(N2C(=O)[C@H]3CC(C)c4c([nH]c5ccccc45)[C@H]3C2=O)c1 (some centres undefined) | – | 64.4 µM (inactive) | 20.7 µM (inactive) | 36.1 µM (inactive) | 57.5 µM (inactive) | > 100 µM (inactive) | 92.3 µM (inactive) | 93.5 µM (inactive) | 45.7 µM (inactive) | > 100 µM (inactive) | 50 µM (inactive) | > 100 µM (inactive) | 78 µM (inactive) | 28.4 µM (inactive) | 84.7 µM (inactive) | – | > 100 µM | – | –
12 | COc1ccccc1NC(=O)C1=C(C)NC(C)=C(C(=O)Nc2ccccc2OC)C1/C=C/c1ccccc1 | 90.8 µM (inactive) | 49.1 µM (inactive) | > 100 µM (inactive) | > 100 µM (inactive) | > 100 µM (inactive) | > 100 µM (inactive) | > 100 µM (inactive) | > 100 µM (inactive) | > 100 µM (inactive) | > 100 µM (inactive) | > 100 µM (inactive) | 92.9 µM (inactive) | > 100 µM (inactive) | > 100 µM (inactive) | > 100 µM (inactive) | 48.3 µM (inactive) | > 100 µM | – | –
